Measurements: patent US20210261495A1, “COMPOSITIONS AND METHODS OF USING ITACONIC ACID DERIVATIVES” (ERGON PHARMACEUTICALS, LLC, priority 2018, published 2021)

Legend:
[1] = target: T1, IRG1 (Homo sapiens, UniProt A6NK06); test: Itaconic acid synthesis by LPS-stimulated macrophages (inhibition of IRG1), GC-MS; type: cell-based; settings: LPS-stimulated hMDMs, 50, 100, 500 μM, LPS 8 hrs
T1 construct: Human monocytes, isolated from peripheral blood and differentiated into macrophages; endogenous in cells; host or cells: human monocyte-derived macrophages (hMDMs), M-CSF differentiated, LPS-stimulated
T1 sequence (A6NK06 1-481): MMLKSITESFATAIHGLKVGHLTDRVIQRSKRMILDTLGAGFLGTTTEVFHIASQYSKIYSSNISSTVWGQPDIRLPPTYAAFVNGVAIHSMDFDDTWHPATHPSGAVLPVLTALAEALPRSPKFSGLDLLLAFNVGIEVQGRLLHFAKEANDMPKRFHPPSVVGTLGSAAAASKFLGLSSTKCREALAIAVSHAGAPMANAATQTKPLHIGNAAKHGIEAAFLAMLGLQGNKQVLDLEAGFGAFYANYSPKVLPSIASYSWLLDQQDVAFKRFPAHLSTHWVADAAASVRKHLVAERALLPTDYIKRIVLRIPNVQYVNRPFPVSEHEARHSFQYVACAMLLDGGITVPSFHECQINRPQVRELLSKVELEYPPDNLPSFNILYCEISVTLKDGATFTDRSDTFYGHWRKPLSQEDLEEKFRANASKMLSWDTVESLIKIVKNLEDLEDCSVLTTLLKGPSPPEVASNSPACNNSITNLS
Method: Inhibition of IRG1. Itaconic acid levels are a measure of IRG1 expression/activity. To determine the activity of IRG, hMDMs were stimulated with 100 ng/mL LPS for 8 hrs in the presence or absence of the therapeutic agent. Gas chromatography-mass spectroscopy (GC-MS) was used to estimate the intracellular and extracellular concentration of the itaconic acid. In a typical assay, 1-5×10^6 cells were plated onto a 6-well plate and allowed to adhere overnight. The cells were then stimulated with 0.1-1 μg/mL LPS in the presence or absence of the compound of interest for 8 hrs. The cells were then washed and metabolites were extracted using methanol/water and acetonitrile additions. The aqueous phase of the mixture was dried and metabolites present were derivatized prior to the detection by GC-MS.
Itaconic Acid Synthesis by LPS-Stimulated Macrophages after Treatment with Compound (6). Human monocytes, isolated from peripheral blood and differentiated into macrophages in the presence of 100 ng/mL monocyte colony-stimulating factor (M-CSF) for 5 days, were plated onto a 6-well plate at a density of 1×10^6 cells/well. The cells were allowed to adhere overnight. […] Derivatized metabolites were analyzed by GC-MS. The amount of itaconic acid present in the samples was determined after peak integration. […]

[2] = tested on: C6-IRG1-9 rat glioma cells; test: C6-IRG1-9 rat glioma cell proliferation, CyQuant; type: cell-based; settings: various concentrations, 48 hrs
Method: Tumor Cell Proliferation Assay. This assay was used to assess the anti-tumor properties of a therapeutic agent in vitro. In a typical proliferation assay, cells were cultured to near confluency in the appropriate media. Subsequently, the cells were trypsinized and plated onto 96-well plates at 2,000 or 5,000 cell per well. The cells were cultured for 48 to 96 hours in the presence or absence of the therapeutic agent. Cell proliferation was then determined using spectrophotometry (MTT assay, BrdU assay) or fluorimetry (Cyquant assay).
Inhibition of C6-IRG1-9 Rat Glioma cell proliferation. C6-IRG1-9 cells are rat C6 glioma cells that have been transfected to overexpress IRG1. Overexpression of IRG1 is maintained by culturing the cells in DMEM media containing 0.55 μg/mL puromycin. For the proliferation assays, the cells were plated onto a 96-well plate at a density of 2,000 cells/well. The cells were allowed to adhere overnight; they were subsequently treated with various concentrations of compounds of Formula (2) for 48 hrs. At the end of the incubation period, the number of cells is assessed using the CyQuant Cell Proliferation kit (Thermo Fisher) according to the manufacturer's instructions. The results, shown in FIG. 3, indicate that compounds of Formula (2) are able to reduce or abrogate growth of C6-IRG1-9 cells. In FIG. 3, cell proliferation is expressed as % Untreated Control, defined as: […]
where t is the number of cells present in a treated well at the end of the incubation period, c is the number of cells present in an untreated well at the end of the incubation period, and s is the initial number of cells in the wells prior to initiation of treatment.

## O=C(O)/C(=C\c1ccc(F)cc1)C(Cc1ccccc1)C(=O)O (stereo not drawn) [Compound (6), 2-benzyl-3-[(4-flurophenyl)methylidene]butanedioic acid]
[1]
  extracellular levels of itaconic acid: suppressed
  intracellular levels of itaconic acid: suppressed
[2]
  proliferation of C6-IRG1-9 rat glioma cells: inhibition of proliferation
